Patent publication US11633418B2, “Deoxyribonucleoside monophospate bypass therapy for mitochondrial DNA depletion syndrome” (priority 2015, dated 2023)

Assay: Dissolution in liquid (water, formula or milk)
Format: physicochemical
Description: The preferred form of the administration of the deoxyribonucleoside monophosphates is in the form of disodium salts of the deoxyribonucleoside monophosphates. […] Once administered, the deoxyribonucleoside monophosphates salts convert to the free acid form. By way of example, for some of the oral administration to human patients, 2000 mg each of dTMP Na2 and dCMP Na2 were dissolved in 25 ml of water.

Row | SMILES | Dissolution in liquid (such as water, formula or milk)
1 | Nc1ccn([C@H]2C[C@H](O)[C@@H](COP(=O)([O-])[O-])O2)c(=O)n1.[Na+].[Na+] [dCMP Na2] | easily dissolved
2 | Cc1cn([C@H]2C[C@H](O)[C@@H](COP(=O)([O-])[O-])O2)c(=O)[nH]c1=O.[Na+].[Na+] [dTMP Na2] | easily dissolved
